Measured values from patent US20220235343A1, “NOVEL ADP-RIBOSYL CYCLASE AND INHIBITOR THEREOF” (INDUSTRIAL COOPERATION FOUNDATION CHONBUK NATIONAL …, priority 2019, published 2022).

Key:
Type in all cases: in vivo
[1] = tested on: hypertension mouse model (L-NAME, C57BL/6J mouse); test: Blood pressure and creatinine clearance rate in L-NAME hypertension mouse model; conditions: DCQA 9 μg/mL 100 μL intraperitoneally every day for 7 days
Description: The blood pressure and creatinine clearance rate in a hypertension mouse model were measured by the method reported by Allagnat et al. [Allagnat F, Haefliger J A, Lambelet M, Longchamp A, Berard X, Mazzolai L, Corpataux J M, Deglise S. Eur. J. Vasc. Endovasc. Surg. 51: 733-742, 2016] and Kim S Y et al. [Kim S Y, Park K H, Gul R, Jang K Y, Kim U H. Am. J. Physiol. Renal Physiol. 296: F291-F297, 2009]
Specifically, 0.2 mL of 8 mg of L-NAME (Nw-nitro-L-arginine-methyl-ester, Sigma-Aldrich, USA) dissolved in 1 mL of saline was orally administered to C57BL/6J mouse every day. On days 7 and 14 of the oral administration, blood pressure was measured at the tail of the mouse. […] On day 6 after the DCQA treatment, the mouse was put in a metabolic cage and urine was collected for 24 hours.
After measuring the blood pressure of the mouse (FIG. 11A), the mouse was sacrificed and serum was obtained.
Creatinine clearance rate was calculated by measuring the creatinine levels in urine and serum using a creatinine assay kit (Bioassay Systems, USA) (FIG. 11B).

[2] = tested on: ADPRC activity and cADPR concentration in kidney tissue; test: ADPRC activity and cADPR concentration in kidney tissue of renal disease mouse model; conditions: STZ mice, DCQA i.p. every day for 6 weeks
Description: The ADPRC activity and cADPR concentration in the kidney tissue of a renal disease mouse model were measured by the method reported by Kim S Y et al. [Kim S Y, Park K H, Gul R, Jang K Y, Kim U H. Am. J. Physiol. Renal Physiol. 296: F291-F297, 2009]
Specifically, 0.2 mL of 50 mM citrate buffer (pH 4.8) (control group and DCQA group) or 200 μL of 5 mg/mL streptozotocin (STZ, Sigma-Aldrich (USA)) dissolved in 50 mM citrate buffer (STZ group and STZ+DCQA group) was intraperitoneally injected to C57BL/6J mice. Blood glucose was measured from day 2 after the STZ injection and the mice whose blood glucose level was 300 mg/dL were divided into an STZ group and an STZ+DCQA group. […] In order to investigate the possibility as a therapeutic agent for a renal disease, the mouse was sacrificed and serum and kidney were taken.
After lysing some of the kidney tissue with a lysis buffer, 45 μL of the lysed sample was treated with 5 μL of 2 mM NGD (nicotinamide guanine dinucleotide) and reacted at 37° C. for 1 hour. Then, the enzyme-substrate reaction was stopped by treating with 50 μL of 10% trichloroacetic acid. After centrifuging for 10 minutes and adding 80 μL of the supernatant to 720 μL of a 0.1 M sodium phosphate buffer, absorbance was measured at 297 nm (excitation) and 410 nm (emission) with a fluorescence spectrometer (Hitachi, Japan). […]

[3] = tested on: kidney tissue of diabetic renal disease mouse model; test: Histopathological change in kidney tissue of renal disease mouse model (H&E staining); conditions: STZ mice, DCQA i.p. every day for 6 weeks, FIG. 9
Description: The histopathological change in the kidney tissue of a renal disease mouse model was measured by the method reported by Shu B et al. [Shu B, Feng Y, Gui Y, Lu Q, Wei W, Xue X, Sun X, He W, Yang J, Dai C. Cell. Signal. 42:249-258, 2018]
Specifically, 0.2 mL of 50 mM citrate buffer (pH 4.8) (control group and DCQA group) or 200 μL of 5 mg/mL streptozotocin (STZ, Sigma-Aldrich (USA)) dissolved in 50 mM citrate buffer (STZ group and STZ+DCQA group) was intraperitoneally injected to C57BL/6J mice. Blood glucose was measured from day 2 after the STZ injection and the mice whose blood glucose level was 300 mg/dL were divided into an STZ group and an STZ+DCQA group. […] In order to investigate the possibility as a therapeutic agent for a renal disease, the mouse was sacrificed and serum and kidney were taken. Some of the extracted kidney was fixed in 10% formalin. The kidney tissue fixed in 10% formalin was cut into kidney tissue sections on a slide glass using a cryostat microtome. The kidney tissue sections were washed with running water for 5 minutes and then stained with hematoxylin for 5 minutes. After the staining, the tissue was washed with running water for 5 minutes. Then, the tissue was immersed in 157 mM hydrochloric acid 2 times and taken out quickly. Then, the tissue was immersed once in 0.25% ammonia water and taken out quickly. After washing again with running water for 5 minutes and staining with eosin for about 30 seconds, the tissue was reacted with 70% ethanol for 30 seconds, with 80% ethanol for 30 seconds, with 90% ethanol for 30 seconds, with 100% ethanol for 30 seconds, again with 100% ethanol for 30 seconds, and then again with 100% ethanol for 30 seconds. Finally, after reacting with xylene for 5 minutes and again with xylene for 5 minutes or longer, a cover glass was attached using a mounting solution.

## O=C(/C=C/c1ccc(O)c(O)c1)OC1[C@H](O)CC(OC(=O)/C=C/c2ccc(O)c(O)c2)(C(=O)O)C[C@H]1O (stereo partly shown) [DCQA, 1,4-dicaffeoylquinic acid]
[1]; FIG. 11A
  blood pressure: no effect of lowering blood pressure
[1]; FIG. 11B
  creatinine clearance rate: increase in creatinine clearance rate
[2]; FIG. 7B
  cADPR concentration in kidney tissue: decreased the cADPR concentration increased by STZ to the level of the control group
[2]; NGD substrate, FIG. 7A
  ADP-ribosyl cyclase activity in kidney tissue: decreased the ADP-ribosyl cyclase activity increased by STZ to the level of the control group
[3]
  formation of transitional epithelial cells increased by STZ, recovered by DCQA: to a level similar to that of the control group
  glomerulus hypertrophy increased by STZ, recovered by DCQA: to a level similar to that of the control group
  infiltration of inflammatory cells increased by STZ, recovered by DCQA: to a level similar to that of the control group
